Source: ChEMBL document CHEMBL3813695, “Assessment of the anti-metastatic properties of sanguiin H-6 in HUVECs and MDA-MB-231 human breast cancer cells” (Bioorg Med Chem Lett, 2016)
Active and inactive are the calls of the source. The rule behind the calls is not given here.

How the values were obtained:
[1] = test system: HUVEC; test: Cytotoxicity against HUVEC assessed as inhibition of cell proliferation up to 12.5 uM after 24 hrs by MTT assay; type: cell-based; conditions: human
[2] = target: RAC-alpha serine/threonine-protein kinase (Homo sapiens) (UniProt P31749); test: Decrease in phosphorylated Akt level in human MDA-MB-231 cells after 24 hrs by western blotting method; type: cell-based
[3] = test system: HUVEC; test: Antimigratory activity against HUVEC at 6.25 uM measured after 24 hrs by Mayers hematoxylin and eosin-Y staining based microscopic analysis relative to control; type: functional, Homo sapiens
[4] = test system: MDA-MB-231; test: Cytotoxicity against human MDA-MB-231 cells assessed as decrease in cell viability at 6.25 to 25 uM after 24 hrs by MTT assay; type: functional, cell-based
[5] = test system: MDA-MB-231; test: Decrease in VEGF expression in human MDA-MB-231 cells after 24 hrs by western blotting method; type: functional, cell-based
[6] = test system: HUVEC; test: Inhibition of tube formation in HUVEC at 6.25 uM measured after 24 hrs by Mayers hematoxylin staining based light microscopic analysis relative to control; type: functional; conditions: Homo sapiens
[7] = target: Mitogen-activated protein kinase; ERK1/ERK2 (Homo sapiens) (UniProt P27361+P28482); test: Decrease in phosphorylated ERK1/2 level in human MDA-MB-231 cells after 24 hrs by western blotting method; type: cell-based
[8] = test system: HUVEC; test: Cytotoxicity against HUVEC assessed as inhibition of cell proliferation after 24 hrs by MTT assay; type: cell-based; conditions: human
[9] = test system: MDA-MB-231; test: Cytotoxicity against human MDA-MB-231 cells assessed as decrease in cell viability at 200 uM after 24 hrs by MTT assay; type: functional, cell-based

Mitogen-activated protein kinase; ERK1/ERK2 (Homo sapiens), sequence (P27361 whole entry, looked up): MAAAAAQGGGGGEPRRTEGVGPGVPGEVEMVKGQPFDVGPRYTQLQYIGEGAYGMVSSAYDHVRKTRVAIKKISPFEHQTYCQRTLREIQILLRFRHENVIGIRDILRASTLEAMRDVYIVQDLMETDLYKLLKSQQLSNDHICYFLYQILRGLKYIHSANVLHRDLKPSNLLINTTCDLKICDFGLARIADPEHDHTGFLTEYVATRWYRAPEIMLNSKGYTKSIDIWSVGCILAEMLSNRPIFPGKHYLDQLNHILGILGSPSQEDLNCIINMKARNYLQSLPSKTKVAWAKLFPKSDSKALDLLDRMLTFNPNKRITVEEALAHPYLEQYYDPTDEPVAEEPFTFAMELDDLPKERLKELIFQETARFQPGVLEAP
Mitogen-activated protein kinase; ERK1/ERK2 (Homo sapiens), sequence (P28482 whole entry, looked up): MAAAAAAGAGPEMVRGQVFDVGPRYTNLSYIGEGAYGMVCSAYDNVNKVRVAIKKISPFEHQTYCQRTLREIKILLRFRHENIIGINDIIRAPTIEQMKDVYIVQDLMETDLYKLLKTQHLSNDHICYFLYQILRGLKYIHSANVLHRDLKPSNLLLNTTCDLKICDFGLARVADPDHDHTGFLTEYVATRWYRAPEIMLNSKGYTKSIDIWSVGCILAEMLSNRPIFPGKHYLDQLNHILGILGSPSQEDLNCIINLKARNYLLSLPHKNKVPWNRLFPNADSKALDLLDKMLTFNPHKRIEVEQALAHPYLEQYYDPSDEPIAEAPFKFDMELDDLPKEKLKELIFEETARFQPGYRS
RAC-alpha serine/threonine-protein kinase (Homo sapiens), sequence (P31749 whole entry): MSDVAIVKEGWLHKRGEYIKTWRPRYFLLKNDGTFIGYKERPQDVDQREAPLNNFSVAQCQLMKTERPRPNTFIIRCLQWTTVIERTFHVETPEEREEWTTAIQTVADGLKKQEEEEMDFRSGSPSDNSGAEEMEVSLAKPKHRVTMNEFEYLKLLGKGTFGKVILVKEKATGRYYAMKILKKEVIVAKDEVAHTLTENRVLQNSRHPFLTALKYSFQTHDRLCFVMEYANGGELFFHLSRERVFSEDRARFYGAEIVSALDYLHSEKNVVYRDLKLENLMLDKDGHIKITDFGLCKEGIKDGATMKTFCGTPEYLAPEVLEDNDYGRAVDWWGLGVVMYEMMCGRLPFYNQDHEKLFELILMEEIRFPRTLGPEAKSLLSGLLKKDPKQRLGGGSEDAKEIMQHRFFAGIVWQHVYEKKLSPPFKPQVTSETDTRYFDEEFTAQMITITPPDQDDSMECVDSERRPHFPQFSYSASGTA

O=C(O[C@@H]1O[C@@H]2COC(=O)c3cc(O)c(O)c(O)c3-c3c(cc(O)c(O)c3O)C(=O)O[C@H]2[C@@H]2OC(=O)c3cc(O)c(O)c(O)c3-c3c(cc(O)c(O)c3O)C(=O)O[C@@H]12)c1cc(O)c(O)c(Oc2c(O)c(O)c(O)c3c2C(=O)O[C@H]2[C@@H]4OC(=O)c5cc(O)c(O)c(O)c5-c5c(cc(O)c(O)c5O)C(=O)O[C@H]4[C@@H](OC(=O)c4cc(O)c(O)c(O)c4)O[C@@H]2COC(=O)c2cc(O)c(O)c(O)c2-3)c1
Activity [1]: Non-toxic | inhibition [2]: Active | Activity [3]: 37.6% | inhibition [4]: inactive | inhibition [5]: Active | inhibition at 6.25 µM [6]: 41.5% | inhibition [7]: Active | inhibition (INH) [8]: Dose-dependent effect | inhibition [9]: Active
